Reference: patent EP0252525B1, “Alpha-amylase assay using modified oligosaccharide and process for producing said modified oligosaccharide” (WAKO PURE CHEMICAL INDUSTRIES, LTD, priority 1986, dated 1988)
“And” between values parts separate entries of the source, which are not always exact repeats. Identical values can stand only once.

Columns and labels:
Assay type in all cases: biochemical
HPA [1] = target: T1, HPA (Homo sapiens, UniProt P04746); assay: Km determination (Lineweaver-Burk plot, products measured by HPLC); conditions: 50 mM BES/NaOH buffer pH 7.6, 37°C, 5 min
T1 sequence (P04746 16-511): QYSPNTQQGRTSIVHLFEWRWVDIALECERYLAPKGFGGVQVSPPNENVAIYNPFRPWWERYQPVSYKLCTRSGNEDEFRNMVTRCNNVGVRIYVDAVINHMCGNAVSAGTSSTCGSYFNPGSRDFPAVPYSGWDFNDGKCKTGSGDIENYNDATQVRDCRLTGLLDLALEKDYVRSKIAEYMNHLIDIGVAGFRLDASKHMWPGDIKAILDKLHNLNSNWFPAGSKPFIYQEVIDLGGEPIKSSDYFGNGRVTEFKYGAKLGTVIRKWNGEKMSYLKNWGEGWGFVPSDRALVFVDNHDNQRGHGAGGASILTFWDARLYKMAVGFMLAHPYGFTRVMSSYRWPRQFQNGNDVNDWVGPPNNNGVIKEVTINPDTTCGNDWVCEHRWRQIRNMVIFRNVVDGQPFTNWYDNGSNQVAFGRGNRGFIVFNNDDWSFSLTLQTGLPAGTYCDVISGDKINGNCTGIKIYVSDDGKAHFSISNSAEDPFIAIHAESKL
Experimental: The amounts of the products were measured with HPLC.

glucoamylase = assay: Action of glucoamylase on the modified oligosaccharide
[2] = target: T2, human salivary α-amylase (HSA) (Homo sapiens, UniProt P0DUB6); assay: Hydrolysis rate of substrates by α-amylase (relative to G5P); conditions: substrate 1.0 mM, pH 7, value of G5P taken as 1
T2 sequence (P0DUB6 16-511): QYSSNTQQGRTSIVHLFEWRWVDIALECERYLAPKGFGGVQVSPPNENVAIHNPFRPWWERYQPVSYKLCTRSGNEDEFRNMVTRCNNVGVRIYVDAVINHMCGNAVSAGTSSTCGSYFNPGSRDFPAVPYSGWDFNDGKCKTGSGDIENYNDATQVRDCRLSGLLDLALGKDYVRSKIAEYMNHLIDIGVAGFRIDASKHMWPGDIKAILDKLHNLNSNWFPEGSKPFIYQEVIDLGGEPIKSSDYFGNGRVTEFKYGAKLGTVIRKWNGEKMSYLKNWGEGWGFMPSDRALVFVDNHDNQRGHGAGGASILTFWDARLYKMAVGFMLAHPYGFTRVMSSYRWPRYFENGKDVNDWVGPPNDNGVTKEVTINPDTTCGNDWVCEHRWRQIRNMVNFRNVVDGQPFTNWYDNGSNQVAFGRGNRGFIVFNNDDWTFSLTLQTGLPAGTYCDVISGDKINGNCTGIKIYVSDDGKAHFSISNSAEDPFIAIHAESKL
Experimental: (§1) The above-mentioned advantages can be shown by using the following oligosaccharides: [drawing 6] n = 2: BG4P n = 3: BG5P (the present invention) n = 4: BG6P n = 5: BG7P [drawing 7] n = 2: G4P n = 3: G5P (standard) n = 4: G6P n = 5: G7P [drawing 8] n = 2: BDG4P n = 3: BDG5P n = 4: BDG6P n = 5: BDG7P The hydrolysis rate is measured by using human pancreatic α-amylase (HPA) or human salivary α-amylase (HSA) for each substrate (1.0 mM) at pH 7, and evaluating by means of relative values by taking the value of G5P as 1.

[3] = target: T3, human pancreatic α-amylase (HPA) (Homo sapiens, UniProt P04746); assay: as above; conditions: substrate 1.0 mM, pH 7, value of G5P taken as 1
T3 sequence (P04746 16-511): T1 sequence (P04746 16-511)
Experimental: as §1

HPA [4] = target: T1, HPA; assay: Binding mode (distribution of hydrolysis products) by HPLC; conditions: for Hydrolysis product G2P: share of product G2P; for Hydrolysis product G3P: share of product G3P; for Hydrolysis product G4P: share of product G4P; for Hydrolysis product GP: share of product GP
Experimental: (§2) The binding mode of each substrate were measured with high-performance liquid chromatography (HPLC) as described above.

HSA = target: T4, HSA (Homo sapiens, UniProt P0DUB6); assay: as above; conditions: for Hydrolysis product G2P: share of product G2P; for Hydrolysis product G3P: share of product G3P; for Hydrolysis product G4P: share of product G4P; for Hydrolysis product GP: share of product GP
T4 sequence (P0DUB6 16-511): T2 sequence (P0DUB6 16-511)
Experimental: as §2

SMILES	Km (HPA [1])	action of glucoamylase on the substrate (glucoamylase)	hydrolysis rate (relative value) [2]	hydrolysis rate (relative value) [3]	Hydrolysis product G2P (HPA [4]) [%]	Hydrolysis product G3P (HPA [4]) [%]	Hydrolysis product G4P (HPA [4]) [%]	Hydrolysis product GP (HPA [4]) [%]	Hydrolysis product G2P (HSA) [%]	Hydrolysis product G3P (HSA) [%]	Hydrolysis product G4P (HSA) [%]	Hydrolysis product GP (HSA) [%]
O=[N+]([O-])c1ccc(O[C@H]2O[C@H](CO)[C@@H](O[C@H]3O[C@H](CO)[C@@H](O[C@H]4O[C@H](CO)[C@@H](O[C@H]5O[C@H](CO)[C@@H](O[C@H]6O[C@H](COCc7ccccc7)[C@@H](O)[C@H](O)[C@H]6O)[C@H](O)[C@H]5O)[C@H](O)[C@H]4O)[C@H](O)[C@H]3O)[C@H](O)[C@H]2O)cc1 [BG5P, p-nitrophenyl O-(6-O-benzyl)-α-D-glycopyranosyl-(1→4)-O-α-D-glucopyranosyl-(1→4)-O-α-D-glucopyranosyl-(1→4)-O-α-D-glucopyranosyl-(1→4)-α-D-glucopyranoside]	110 µM and 106 µM	not acted by glucoamylase	1.4	1.4	95	0	0	5	98	0	0	2
O=[N+]([O-])c1ccc(O[C@H]2O[C@H](CO)[C@@H](O[C@H]3O[C@H](CO)[C@@H](O[C@H]4O[C@H](CO)[C@@H](O[C@H]5O[C@H](CO)[C@@H](O[C@H]6O[C@H](CO)[C@@H](O)[C@H](O)[C@H]6O)[C@H](O)[C@H]5O)[C@H](O)[C@H]4O)[C@H](O)[C@H]3O)[C@H](O)[C@H]2O)cc1 [Substrate G5P]	360 µM and 358 µM	–	1.0	1.0	73	12	0	15	83	11	0	6
O=[N+]([O-])c1ccc(O[C@H]2O[C@H](CO)[C@@H](O[C@H]3O[C@H](CO)[C@@H](O[C@H]4O[C@H](CO)[C@@H](O[C@H]5O[C@H](CO)[C@@H](O[C@H]6O[C@H](CBr)[C@@H](O)[C@H](O)[C@H]6O)[C@H](O)[C@H]5O)[C@H](O)[C@H]4O)[C@H](O)[C@H]3O)[C@H](O)[C@H]2O)cc1 [BrG5P]	–	not acted by glucoamylase	–	–	–	–	–	–	–	–	–	–
